Test results: PubChem BioAssay (NCI)
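Each compound was tested at five concentrations against cells in 96-well plates for 48 hours. At the GI50, growth is halved. TGI denotes the concentration required for complete inhibition of growth.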

Tests used:
Test in all cases: inhibition of tumour cell growth, NCI panel, 48 h
[1] = system: PC-3 prostate
[2] = system: SNB-19 CNS
[3] = system: RPMI-8226 leukemia
[4] = system: MOLT-4 leukemia
[5] = system: EKVX NSCLC
[6] = system: M14 melanoma
[7] = system: HCT-15 colon
[8] = system: SK-OV-3 ovarian
[9] = system: KM12 colon
[10] = system: A498 renal
[11] = system: HOP-62 NSCLC
[12] = system: T-47D breast
[13] = system: OVCAR-5 ovarian
[14] = system: OVCAR-8 ovarian
[15] = system: NCI-H522 lung
[16] = system: CAKI-1 renal
[17] = system: SN12C renal
[18] = system: MDA-MB-435
[19] = system: SK-MEL-2 melanoma
[20] = system: ACHN renal
[21] = system: DU-145 prostate
[22] = system: OVCAR-4 ovarian
[23] = system: MCF7 breast
[24] = system: 786-0 renal
[25] = system: NCI-H460 lung
[26] = system: UACC-257 melanoma
[27] = system: SF-268 CNS
[28] = system: SF-539 CNS
[29] = system: SW-620 colon
[30] = system: U251 CNS

Q: With Fc1ccc(N2CC(Cn3c(C(F)(F)F)cc4c(Cl)ncnc43)C2)c(F)c1 as the molecule, how does the TGI [1] read?
A: 10.9 µM

Q: What about the GI50 [2] of the same molecule?
A: 15.1 µM

Q: What about the TGI [2] of the same molecule?
A: 28.9 µM

Q: What about the GI50 [3] of the same molecule?
A: 23.4 µM

Q: What about the TGI [3] of the same molecule?
A: 64.9 µM

Q: And the GI50 [4]?
A: 3.12 µM

Q: And the TGI [4]?
A: 8.97 µM

Q: What about the GI50 [5] of the same molecule?
A: 6.54 µM

Q: And the TGI [5]?
A: 19.8 µM

Q: What about the GI50 [6] of the same molecule?
A: 2.98 µM

Q: And the TGI [6]?
A: 10.7 µM

Q: And the GI50 [7]?
A: 1.79 µM

Q: And the TGI [7]?
A: 3.55 µM

Q: What about the GI50 [8] of the same molecule?
A: 14.6 µM

Q: What about the TGI [8] of the same molecule?
A: 29.6 µM

Q: And the GI50 [9]?
A: 16.1 µM

Q: What about the TGI [9] of the same molecule?
A: 31.2 µM

Q: And the GI50 [10]?
A: 23.3 µM

Q: And the TGI [10]?
A: 74.2 µM

Q: And the GI50 [11]?
A: 17.1 µM

Q: What about the TGI [11] of the same molecule?
A: 33.8 µM

Q: And the GI50 [12]?
A: 13.9 µM

Q: And the TGI [12]?
A: 66.8 µM

Q: And the GI50 [13]?
A: 17.8 µM

Q: What about the TGI [13] of the same molecule?
A: 37.3 µM

Q: And the GI50 [14]?
A: 2.15 µM

Q: And the TGI [14]?
A: 5.07 µM

Q: What about the GI50 [15] of the same molecule?
A: 1.82 µM

Q: And the TGI [15]?
A: 3.97 µM

Q: What about the GI50 [16] of the same molecule?
A: 11.8 µM

Q: And the TGI [16]?
A: 24.2 µM

Q: And the GI50 [17]?
A: 1.95 µM

Q: And the TGI [17]?
A: 4.97 µM

Q: What about the GI50 [18] of the same molecule?
A: 4.95 µM

Q: What about the TGI [18] of the same molecule?
A: 17.6 µM

Q: What about the GI50 [19] of the same molecule?
A: 15.9 µM

Q: And the TGI [19]?
A: 31.2 µM

Q: What about the GI50 [20] of the same molecule?
A: 12.9 µM

Q: What about the TGI [20] of the same molecule?
A: 27.5 µM

Q: And the GI50 [21]?
A: 12.6 µM

Q: And the TGI [21]?
A: 25.8 µM

Q: And the GI50 [22]?
A: 12.9 µM

Q: And the TGI [22]?
A: 27 µM

Q: And the GI50 [23]?
A: 8.16 µM

Q: What about the TGI [23] of the same molecule?
A: 23.6 µM

Q: And the GI50 [24]?
A: 14.9 µM

Q: And the TGI [24]?
A: 29.1 µM

Q: What about the GI50 [25] of the same molecule?
A: 3.99 µM

Q: What about the TGI [25] of the same molecule?
A: 14.3 µM

Q: And the GI50 [26]?
A: 3.1 µM

Q: And the TGI [26]?
A: 12 µM

Q: What about the GI50 [27] of the same molecule?
A: 3.14 µM

Q: And the TGI [27]?
A: 11.2 µM

Q: What about the GI50 [28] of the same molecule?
A: 13.7 µM

Q: What about the TGI [28] of the same molecule?
A: 28.3 µM

Q: And the GI50 [29]?
A: 1.89 µM

Q: What about the TGI [29] of the same molecule?
A: 3.85 µM

Q: And the GI50 [30]?
A: 1.91 µM

Q: What about the TGI [30] of the same molecule?
A: 3.83 µM
